Measured values as given in paper PMC11163866 (Journal of medicinal chemistry, 2024).

Columns and labels:
[1] = In vitro metabolic stability in human liver microsomes; format: in vitro ADME; details: 1 μM; 0.5 mg/mL microsomes; up to 60 min
[2] = In vitro metabolic stability in mouse liver microsomes; format: in vitro ADME; details: 1 μM; 0.5 mg/mL microsomes; up to 60 min

Question: With `COC1=CC(c2ccc[nH]2)=N/C1=C\NC1CCCCCC1.Cl` [compound 45] as the compound, how does the “metabolic stability (t1/2, min) vs HLM” value [1] read?
Answer: Its value is 52.1 min.

Question: What about the “metabolic stability (t1/2, min) vs MLM” value [2] of the same compound?
Answer: The value was 8.20 min.

Question: For `COC1=CC(c2ccc(-c3ccc(OC)cc3)[nH]2)=N/C1=C\NC1CCCCCC1.Cl` [compound 118, (Z)-N-((4'-Methoxy-5-(4-methoxyphenyl)-1H,5'H-[2,2'-bipyrrol]-5'-ylidene)methyl)cycloheptanamine Hydrochloride], which “metabolic stability (t1/2, min) vs HLM” value [1] is on record?
Answer: The value was greater than 60.0 min.

Question: And the “metabolic stability (t1/2, min) vs MLM” value [2]?
Answer: The value was greater than 60.0 min.

Question: With `COC1=CC(c2ccc[nH]2)=N/C1=C\N[C@H]1CC[C@H](C(F)(F)F)CC1.Cl` [compound 48, (1r,4r)-N-((Z)-(4'-Methoxy-1H,5'H-[2,2'-bipyrrol]-5'-ylidene)methyl)-4-(trifluoromethyl)cyclohexan-1-amine Hydrochloride] as the compound, how does the “metabolic stability (t1/2, min) vs HLM” value [1] read?
Answer: Its value is 13.0 min.

Question: What about the “metabolic stability (t1/2, min) vs MLM” value [2] of the same compound?
Answer: The value was 15.4 min.

Question: For `COC1=CC(c2ccc[nH]2)=N/C1=C\N[C@H]1CC[C@H](C)CC1.Cl` [compound 47, (1r,4r)-N-((Z)-(4'-Methoxy-1H,5'H-[2,2'-bipyrrol]-5'-ylidene)methyl)-4-methylcyclohexan-1-amine Hydrochloride], which “metabolic stability (t1/2, min) vs HLM” value [1] is on record?
Answer: The value was 17.3 min.

Question: What about the “metabolic stability (t1/2, min) vs MLM” value [2] of the same compound?
Answer: The value was 11.4 min.

Question: For `COC1=CC(c2ccc(Cc3ccc(OC)cc3)[nH]2)=N/C1=C\NC12CC3CC(CC(C3)C1)C2.Cl` [compound 123, (3s,5s,7s)-N-((Z)-(4'-Methoxy-5-(4-methoxybenzyl)-1H,5'H-[2,2'-bipyrrol]-5'-ylidene)methyl)adamantan-1-amine Hydrochloride], which “metabolic stability (t1/2, min) vs HLM” value [1] is on record?
Answer: Its value is greater than 60.0 min.

Question: And the “metabolic stability (t1/2, min) vs MLM” value [2]?
Answer: The value was greater than 60.0 min.

Question: What does the source list for `COC1=CC(c2ccc(Cc3ccc(OC)cc3)[nH]2)=N/C1=C\NC1CCCCCCC1.Cl` [compound 122, (Z)-N-((4'-Methoxy-5-(4-methoxybenzyl)-1H,5'H-[2,2'-bipyrrol]-5'-ylidene)methyl)cyclooctanamine Hydrochloride]?
Answer: metabolic stability (t1/2, min) vs HLM [1]: 50.8 min; metabolic stability (t1/2, min) vs MLM [2]: 16.5 min

Question: Which “metabolic stability (t1/2, min) vs HLM” value [1] does the source give for `COC1=CC(c2ccc[nH]2)=N/C1=C\Nc1cccc(OC(F)(F)F)c1.Cl` [compound 58, (Z)-N-((4'-Methoxy-1H,5'H-[2,2'-bipyrrol]-5'-ylidene)methyl)-3-(trifluoromethoxy)aniline Hydrochloride] here?
Answer: Its value is greater than 60.0 min.

Question: And the “metabolic stability (t1/2, min) vs MLM” value [2]?
Answer: Its value is 15.8 min.

Question: With `Cl.FC(F)(F)Oc1ccc(C2=CC(c3ccc[nH]3)=N/C2=C\NC23CC4CC(CC(C4)C2)C3)cc1` [compound 80, (3s,5s,7s)-N-((Z)-(4'-(4-(Trifluoromethoxy)phenyl)-1H,5'H-[2,2'-bipyrrol]-5'-ylidene)methyl)adamantan-1-amine Hydrochloride] as the compound, how does the “metabolic stability (t1/2, min) vs HLM” value [1] read?
Answer: The value was greater than 60.0 min.

Question: And the “metabolic stability (t1/2, min) vs MLM” value [2]?
Answer: Its value is greater than 60.0 min.

Question: Which “metabolic stability (t1/2, min) vs HLM” value [1] does the source give for `C(/NCC1CCCCCC1)=C1/N=C(c2ccc[nH]2)C2=C1CCCC2.Cl` [compound 104, (Z)-1-(3-(1H-Pyrrol-2-yl)-4,5,6,7-tetrahydro-1H-isoindol-1-ylidene)-N-(cycloheptylmethyl)methanamine Hydrochloride] here?
Answer: The value was greater than 60.0 min.

Question: What about the “metabolic stability (t1/2, min) vs MLM” value [2] of the same compound?
Answer: The value was greater than 60.0 min.

Question: Which results are given for `COC1=CC(c2ccc[nH]2)=N/C1=C\Nc1cccc(Cl)c1.Cl` [compound 57, (Z)-3-Chloro-N-((4'-methoxy-1H,5'H-[2,2'-bipyrrol]-5'-ylidene)methyl)aniline Hydrochloride]?
Answer: metabolic stability (t1/2, min) vs HLM [1]: > 60.0 min; metabolic stability (t1/2, min) vs MLM [2]: 42.0 min

Question: With `COC1=CC(c2ccc[nH]2)=N/C1=C\Nc1ccc(OC(F)(F)F)cc1.Cl` [compound 54, (Z)-N-((4'-Methoxy-1H,5'H-[2,2'-bipyrrol]-5'-ylidene)methyl)-4-(trifluoromethoxy)aniline Hydrochloride] as the compound, how does the “metabolic stability (t1/2, min) vs HLM” value [1] read?
Answer: Its value is greater than 60.0 min.

Question: What about the “metabolic stability (t1/2, min) vs MLM” value [2] of the same compound?
Answer: Its value is 45.1 min.

Question: With `COC1=CC(c2ccc[nH]2)=N/C1=C\Nc1ccc(F)c(OC)c1.Cl` [compound 62, (Z)-4-Fluoro-3-methoxy-N-((4'-methoxy-1H,5'H-[2,2'-bipyrrol]-5'-ylidene)methyl)aniline Hydrochloride] as the compound, how does the “metabolic stability (t1/2, min) vs HLM” value [1] read?
Answer: The value was greater than 60.0 min.

Question: And the “metabolic stability (t1/2, min) vs MLM” value [2]?
Answer: The value was 19.1 min.

Question: For `Cl.Clc1ccc(OC2=CC(c3ccc[nH]3)=N/C2=C\NC23CC4CC(CC(C4)C2)C3)cc1` [compound 77, (3s,5s,7s)-N-((Z)-(4'-(4-Chlorophenoxy)-1H,5'H-[2,2'-bipyrrol]-5'-ylidene)methyl)adamantan-1-amine Hydrochloride], which “metabolic stability (t1/2, min) vs HLM” value [1] is on record?
Answer: Its value is greater than 60 min.

Question: What about the “metabolic stability (t1/2, min) vs MLM” value [2] of the same compound?
Answer: Its value is greater than 60 min.

Question: For `COC1=CC(c2ccc(Cc3ccc(OC)cc3)[nH]2)=N/C1=C\NC1CCCCC1.Cl` [compound 120, (Z)-N-((4'-Methoxy-5-(4-methoxybenzyl)-1H,5'H-[2,2'-bipyrrol]-5'-ylidene)methyl)cyclohexanamine Hydrochloride], which “metabolic stability (t1/2, min) vs HLM” value [1] is on record?
Answer: Its value is 19.7 min.

Question: What about the “metabolic stability (t1/2, min) vs MLM” value [2] of the same compound?
Answer: The value was 13.8 min.

Question: With `COC1=CC(c2ccc[nH]2)=N/C1=C\Nc1ccc2c(c1)OCCO2.Cl` [compound 63, (Z)-N-((4'-Methoxy-1H,5'H-[2,2'-bipyrrol]-5'-ylidene)methyl)-2,3-dihydrobenzo[b][1,4]dioxin-6-amine Hydrochloride] as the compound, how does the “metabolic stability (t1/2, min) vs HLM” value [1] read?
Answer: The value was greater than 60.0 min.

Question: And the “metabolic stability (t1/2, min) vs MLM” value [2]?
Answer: Its value is 15.8 min.

Question: With `COC1=CC(c2ccc[nH]2)=N/C1=C\Nc1ccc(Cl)c(OC)c1.Cl` [compound 61, (Z)-4-Chloro-3-methoxy-N-((4'-methoxy-1H,5'H-[2,2'-bipyrrol]-5'-ylidene)methyl)aniline Hydrochloride] as the compound, how does the “metabolic stability (t1/2, min) vs HLM” value [1] read?
Answer: The value was greater than 60.0 min.

Question: And the “metabolic stability (t1/2, min) vs MLM” value [2]?
Answer: Its value is greater than 60.0 min.

Question: Which “metabolic stability (t1/2, min) vs HLM” value [1] does the source give for `CCCCCCN/C=C1\N=C(c2ccc[nH]2)C=C1OC.Cl` [compound 42] here?
Answer: The value was 17.1 min.

Question: What about the “metabolic stability (t1/2, min) vs MLM” value [2] of the same compound?
Answer: The value was 10.2 min.

Question: Which “metabolic stability (t1/2, min) vs HLM” value [1] does the source give for `Cl.Fc1cc(F)cc(OC2=CC(c3ccc[nH]3)=N/C2=C\NC23CC4CC(CC(C4)C2)C3)c1` [compound 74, (3s,5s,7s)-N-((Z)-(4'-(3,5-Difluorophenoxy)-1H,5'H-[2,2'-bipyrrol]-5'-ylidene)methyl)adamantan-1-amine Hydrochloride] here?
Answer: The value was greater than 60.0 min.

Question: What about the “metabolic stability (t1/2, min) vs MLM” value [2] of the same compound?
Answer: Its value is greater than 60.0 min.

Question: What does the source list for `CCc1ccc(C2=N/C(=C\NC3CCCCCC3)C(OC)=C2)[nH]1.Cl` [compound 117, (Z)-N-((5-Ethyl-4'-methoxy-1H,5'H-[2,2'-bipyrrol]-5'-ylidene)methyl)cycloheptanamine Hydrochloride]?
Answer: metabolic stability (t1/2, min) vs HLM [1]: > 60.0 min; metabolic stability (t1/2, min) vs MLM [2]: 7.98 min

Question: With `Cc1ccc(N/C=C2\N=C(c3ccc[nH]3)C3=C2CCCC3)cc1.Cl` [compound 105, (Z)-N-((3-(1H-Pyrrol-2-yl)-4,5,6,7-tetrahydro-1H-isoindol-1-ylidene)methyl)-4-methylaniline Hydrochloride] as the compound, how does the “metabolic stability (t1/2, min) vs HLM” value [1] read?
Answer: The value was 42.1 min.

Question: What about the “metabolic stability (t1/2, min) vs MLM” value [2] of the same compound?
Answer: The value was 31.2 min.

Question: Which results are given for `COC1=CC(c2ccc[nH]2)=N/C1=C\NCC1CCCCCC1.Cl` [compound 46, (Z)-1-Cycloheptyl-N-((4'-methoxy-1H,5'H-[2,2'-bipyrrol]-5'-ylidene)methyl)-methanamine Hydrochloride]?
Answer: metabolic stability (t1/2, min) vs HLM [1]: 18.6 min; metabolic stability (t1/2, min) vs MLM [2]: 12.3 min

Question: With `COC1=CC(c2ccc[nH]2)=N/C1=C\Nc1ccc(Cl)c(Cl)c1.Cl` [compound 60, (Z)-3,4-Dichloro-N-((4'-methoxy-1H,5'H-[2,2'-bipyrrol]-5'-ylidene)methyl)aniline Hydrochloride] as the compound, how does the “metabolic stability (t1/2, min) vs HLM” value [1] read?
Answer: The value was 56.2 min.

Question: What about the “metabolic stability (t1/2, min) vs MLM” value [2] of the same compound?
Answer: The value was 46.7 min.

Question: What does the source list for `COC1=CC(c2ccc(Cc3ccc(OC)cc3)[nH]2)=N/C1=C\NC1CCCC1.Cl` [compound 119, (Z)-N-((4'-Methoxy-5-(4-methoxybenzyl)-1H,5'H-[2,2'-bipyrrol]-5'-ylidene)methyl)cyclopentanamine Hydrochloride]?
Answer: metabolic stability (t1/2, min) vs HLM [1]: 11.7 min; metabolic stability (t1/2, min) vs MLM [2]: 10.4 min

Question: Which results are given for `Cl.FC(F)(F)Oc1ccc(OC2=CC(c3ccc[nH]3)=N/C2=C\NC23CC4CC(CC(C4)C2)C3)cc1` [compound 70, (3s,5s,7s)-N-((Z)-(4'-(4-(Trifluoromethoxy)phenoxy)-1H,5'H-[2,2'-bipyrrol]-5'-ylidene)methyl)adamantan-1-amine Hydrochloride]?
Answer: metabolic stability (t1/2, min) vs HLM [1]: > 60.0 min; metabolic stability (t1/2, min) vs MLM [2]: > 60.0 min

Question: Which “metabolic stability (t1/2, min) vs MLM” value [2] does the source give for `COC1=CC(c2ccc[nH]2)=N/C1=C\Nc1ccc(C)cc1.Cl` [compound 52, (Z)-N-((4'-Methoxy-1H,5'H-[2,2'-bipyrrol]-5'-ylidene)methyl)-4-methylaniline Hydrochloride] here?
Answer: The value was 28.9 min.

Question: For `C(/NC1CCCCCC1)=C1/N=C(c2ccc[nH]2)C2=C1CCCC2.Cl` [compound 102], which “metabolic stability (t1/2, min) vs HLM” value [1] is on record?
Answer: The value was greater than 60.0 min.

Question: What about the “metabolic stability (t1/2, min) vs MLM” value [2] of the same compound?
Answer: Its value is 9.71 min.

Question: Which results are given for `COc1ccc(Oc2ccc(N/C=C3\N=C(c4ccc[nH]4)C4=C3CCCC4)cc2)cc1.Cl` [compound 108, (Z)-N-((3-(1H-Pyrrol-2-yl)-4,5,6,7-tetrahydro-1H-isoindol-1-ylidene)methyl)-4-(4-methoxyphenoxy)aniline Hydrochloride]?
Answer: metabolic stability (t1/2, min) vs HLM [1]: > 60.0 min; metabolic stability (t1/2, min) vs MLM [2]: > 60.0 min

Question: Which “metabolic stability (t1/2, min) vs HLM” value [1] does the source give for `CCc1c[nH]c(C2=N/C(=C\NC3CCCCCC3)C(C)=C2C)c1.Cl` [compound 113, (Z)-N-((4-Ethyl-3',4'-dimethyl-1H,5'H-[2,2'-bipyrrol]-5'-ylidene)methyl)cycloheptanamine Hydrochloride] here?
Answer: The value was greater than 60.0 min.
